Laboratory results taken from publication PMC6966912, “Inverted Binding of Non-natural Substrates in Strictosidine Synthase Leads to a Switch of Stereochemical Outcome in Enzyme-Catalyzed Pictet–Spengler Reactions” (Journal of the American Chemical Society, 2020).

B1: OpSTR (strictosidine synthase from Ophiorrhiza pumila) (Ophiorrhiza pumila) (protein)
chain: SPEFFEFIEAPSYGPNAYAFDSDGELYASVEDGRIIKYDKPSNKFLTHAVASPIWNNALCENNTNQDLKPLCGRVYDFGFHYETQRLYIADCYFGLGFVGPDGGHAIQLATSGDGVEFKWLYALAIDQQAGFVYVTDVSTKYDDRGVQDIIRINDTTGRLIKYDPSTEEVTVLMKGLNIPGGTEVSKDGSFVLVGEFASHRILKYWLKGPKANTSEFLLKVRGPGNIKRTKDGDFWVASSDNNGITVTPRGIRFDEFGNILEVVAIPLPYKGEHIEQVQEHDGALFVGSLFHEFVGILHNYKSSVDHHQEKNSGGLNASFKEFSSF
notes: N-terminal signal peptide removed for improved expression

Columns and labels:
[1] = molecular target: T1, OpSTR (strictosidine synthase from Ophiorrhiza pumila) (Ophiorrhiza pumila, UniProt Q94LW9); assay: biochemical; design: gene str
[2] = molecular target: T1, OpSTR (strictosidine synthase from Ophiorrhiza pumila); assay: X-ray crystal structure (cocrystallization with racemate); format: binding; design: gene str; N-terminal signal peptide removed for improved expression; settings: active site, near Glu276
[3] = substrate: CC(C)CC=O; assay: enzyme kinetics of Pictet-Spengler reaction; format: biochemical, Ophiorrhiza pumila; settings: co-substrate tryptamine

| Molecule | IC50 [1] [mM] | X-ray crystal structure (cocrystallization with racemate) [2] | other results |
| --- | --- | --- | --- |
| CC1NCCc2c1[nH]c1ccccc21 (racemic) [rac-3d] | 3.4 ± 0.3 | – | – |
| CC(C)C[C@@H]1NCCc2c1[nH]c1ccccc21 [3a, (S)-3a] | – | exclusively the (S)-enantiomers of 3a–c were identified in the active site of OpSTR | – |
| CCC[C@@H]1NCCc2c1[nH]c1ccccc21 [3b, (S)-3b] | – | exclusively the (S)-enantiomers of 3a–c were identified in the active site of OpSTR | – |
| CC[C@@H]1NCCc2c1[nH]c1ccccc21 [3c, (S)-3c] | – | exclusively the (S)-enantiomers of 3a–c were identified in the active site of OpSTR | – |
| C[C@@H]1NCCc2c1[nH]c1ccccc21 [(S)-3d] | 1.6 ± 0.1 | – | – |
| B1 | – | – | Km [3]: 5.36 ± 0.83 mM |
